Test results taken from patent publication US4822790A, “1-Sulfo-2-oxoazetidine derivatives and their production” (Takeda Chemical Industries, Ltd., priority 1980, dated 1989).
In brackets after ≈: the same amount, converted by molar mass. Structures can show the parent of a compound that is named as a salt.

Experiments:
Assay type in all cases: cell-based
[1] = test system: Escherichia coli 0-111; assay: Antibacterial test (MIC), Escherichia coli 0-111; conditions: Escherichia coli, 0111; medium TSA; read-out: Minimum inhibitory concentration (MIC)
Excerpt: (§1) The following is media and compounds employed in the antibacterial test.
(§2) TSA=Trypticase soy agar [Baltimore Biologicals (U.S.A.)]
(§3) B-TSA=Blood trypticase soy agar

[2] = test system: Escherichia coli T-7; assay: Antibacterial test (MIC), Escherichia coli T-7; conditions: Escherichia coli, T7; medium TSA; read-out: Minimum inhibitory concentration (MIC)
Excerpt: as §1, §2, §3

[3] = test system: Enterobacter cloacae IFO 12937; assay: MIC by agar dilution method (Experiment C), Enterobacter cloacae IFO 12937; conditions: IFO12937, Trypticase Soy agar, about 10^8 CFU/ml, 37° C. overnight, read-out: Minimal inhibitory concentration (MIC)
Procedure: (§4) The tables given below set forth the minimal inhibitory concentrations (MIC) of some typical compounds [I]C as obtained in the working examples. The minimal inhibitory concentrations of the tested compounds are determined by the agar dilution method. Namely, 1.0 ml. of aqueous solution of the tested compounds diluted by serial dilutions is poured into test petri dish. Subsequently 9.0 ml. of Trypticase Soy agar is poured into the dish and mixed. On the mixed agar plate, one loopful of bacterial suspension (about 10^8 CFU/ml.) of test microorganism is streaked. After the incubation at 37° C. overnight, the lowest concentration of the tested compounds which cause apparently complete inhibition of growth of the test microorganism is taken to be minimal inhibitory concentration. (1) Enterobacter cloacae IFO 12937

[4] = test system: Klebsiella pneumoniae TN 1711; assay: MIC by agar dilution method (Experiment C), Klebsiella pneumoniae TN 1711; conditions: TN1711, Trypticase Soy agar, about 10^8 CFU/ml, 37° C. overnight, read-out: Minimal inhibitory concentration (MIC)
Procedure: as §4, with “(2) Klebsiella pneumoniae TN 1711” for “(1) Enterobacter cloacae IFO 12937”

[5] = test system: Streptococcus pneumoniae Type I; assay: Antibacterial test (MIC), Streptococcus pneumoniae Type I; conditions: Streptococcus pneumoniae, read-out: Minimum inhibitory concentration (MIC)
Excerpt: as §1, §2, §3

[6] = test system: Staphylococcus aureus 308A-1; assay: Antibacterial test (MIC), Staphylococcus aureus 308A-1; conditions: Staphylococcus aureus, 308A1, read-out: Minimum inhibitory concentration (MIC)
Excerpt: as §1, §2, §3

[7] = test system: Streptococcus pyogenes E-14; assay: Antibacterial test (MIC), Streptococcus pyogenes E-14; conditions: Streptococcus pyogenes, E14, read-out: Minimum inhibitory concentration (MIC)
Excerpt: as §1, §2, §3

[8] = test system: Pseudomonas aeruginosa IFO 3455; assay: Antibacterial test (MIC), Pseudomonas aeruginosa IFO 3455; conditions: Pseudomonas aeruginosa, IFO3455, read-out: Minimum inhibitory concentration (MIC)
Excerpt: as §1, §2, §3

[9] = test system: Streptococcus mitis America; assay: Antibacterial test (MIC), Streptococcus mitis America; conditions: Streptococcus mitis, read-out: Minimum inhibitory concentration (MIC)
Excerpt: as §1, §2, §3

SMILES	MIC [1]	MIC [2]	MIC [3]	MIC [4]	also measured
O=C(NC1CN(S(=O)(=O)O)C1=O)[C@H](NC(=O)N1CCN(N=Cc2cccs2)C1=O)c1ccccc1 (stereo partly drawn) [Compound K, Sodium 3-[D-2-[[2-oxo-3-(thiophen-2-aldoimino)-imidazolidin-1-yl]-carboxamido]-2-phenylacetamido]-2-oxoazetidine-1-sulfonate]	0.39 µg/mL	> 100 µg/mL			
C=CCO/N=C(\C(=O)N[C@H]1C(=O)N(S(=O)(=O)O)[C@H]1C(=O)OC)c1csc(N)n1 (relative stereo) [Example No. 72C, sodium cis-3-[2-(2-amino-4-thiazolyl)-2-allyloxyiminoacetamido]-4-methoxycarbonyl-2-oxoazetidine-1-sulfonate]			1.56 µg/mL		
CO/N=C(\C(=O)N[C@H]1C(=O)N(S(=O)(=O)O)[C@H]1COC(N)=O)c1csc(N)n1 (relative stereo) [Example No. 138C, sodium cis-3-[2-(2-amino-4-thiazolyl)-2-methoxyiminoacetamido]-4-carbamoyloxymethyl-2-oxoazetidine-1-sulfonate (syn-isomer)]				6.25 µg/mL	
CCCCCCCCN1CCN(C(=O)N[C@@H](C(=O)NC2CN(S(=O)(=O)O)C2=O)c2ccccc2)C(=O)C1=O (stereo partly drawn) [Compound G, Sodium 3-[D-2-(4-n-octyl-2,3-dioxo-1-piperazinocarboxamido)-2-phenylacetamido]-2-oxoazetidine-1-sulfonate]	0.78 µg/mL	> 100 µg/mL			
CCCCCCCCN1CCN(C(=O)NC(C(=O)NC2CN(S(=O)(=O)O)C2=O)c2csc(N)n2)C(=O)C1=O (stereo not drawn) [Compound H, Sodium 3-[2-(4-n-octyl-2,3-dioxo-1-piperazinocarboxamido)-2-(2-amino-4-thiazolyl)-acetamido]2-oxoazetidine-1-sulfonate]	3.13 µg/mL	> 100 µg/mL			MIC [5]: 3.13 µg/mL; MIC [6]: 3.13 µg/mL; MIC [7]: 3.13 µg/mL
CCN1CCN(C(=O)N[C@@H](C(=O)NC2CN(S(=O)(=O)O)C2=O)c2ccccc2)C(=O)C1=O (single isomer, unassigned) [Compound B, Sodium 3-[D(-)-N-(4-ethyl-2,3-dioxo-1-piperazinocarbonyl)-phenylglycinamido]-2-oxoazetidine-1-sulfonate]	0.2 µg/mL	> 100 µg/mL			
CC(C)(O/N=C(\C(=O)N[C@H]1C(=O)N(S(=O)(=O)O)[C@H]1C(N)=O)c1csc(N)n1)C(=O)O (relative stereo) [Example No. 133C, cis-3-[2-(2-amino-4-thiazolyl)-2-(1-methyl-1-carboxyethyloxyimino)acetamido]-4-carbamoyl-2-oxoazetidine-1-sulfonic acid (syn-isomer)]			1.56 µg/mL (≈ 3.36 µM)	0.39 µg/mL (≈ 0.84 µM)	
CCN1CCN(C(=O)NC(C(=O)NC2CN(S(=O)(=O)O)C2=O)c2csc(N)n2)C(=O)C1=O (stereo not drawn) [Compound D, Sodium 3-[2-(4-ethyl-2,3-dioxo-1-piperazinocarboxamido)-2-(2-amino-4-thiazolyl)-acetamido]-2-oxoazetidine-1-sulfonate]	0.1 µg/mL	> 100 µg/mL			
CC(=O)NC[C@H]1[C@@H](NC(=O)/C(=N\OC(C)(C)C(=O)O)c2csc(N)n2)C(=O)N1S(=O)(=O)O (relative stereo) [Example No. 147C, cis-3-[2-(2-amino-4-thiazolyl)-2-(1-methyl-1-carboxyethyloxyimino)acetamido]-4-acetamidomethyl-2-oxoazetidine-1-sulfonic acid (syn-isomer)]			3.13 µg/mL (≈ 6.36 µM)	0.39 µg/mL (≈ 0.792 µM)	
O=C(NC1CN(S(=O)(=O)O)C1=O)[C@H](NC(=O)N1CCN(N=Cc2ccco2)C1=O)c1ccccc1 (stereo partly drawn) [Compound I, Sodium 3-[D-2-[(2-oxo-3-furfurylideneaminoimidazolidin-1-yl)-carboxamido]-2-phenylacetamido]-2-oxoazetidine-1-sulfonate]	3.13 µg/mL	> 100 µg/mL			MIC [8]: 3.13 µg/mL; MIC [6]: 3.13 µg/mL; MIC [9]: 3.13 µg/mL
COC(=O)[C@H]1[C@@H](NC(=O)/C(=N\OC(C)(C)C(=O)O)c2csc(N)n2)C(=O)N1S(=O)(=O)O (relative stereo) [Example No. 68C, cis-3-[2-(2-amino-4-thiazolyl)-2-(1-methyl-1-carboxyethyloxyimino)acetamido]-4-methoxycarbonyl-2-oxoazetidine-1-sulfonic acid disodium salt]			3.13 µg/mL	0.78 µg/mL	
COC(=O)[C@H]1[C@@H](NC(=O)/C(=N\OCC(=O)O)c2csc(N)n2)C(=O)N1S(=O)(=O)O (relative stereo) [Example No. 65C, cis-3-[2-(2-amino-4-thiazolyl)-2-carboxylmethyloxyiminoacetamido]-4-methoxycarbonyl-2-oxoazetidine-1-sulfonic acid disodium salt]			6.25 µg/mL	0.2 µg/mL	
CC(=O)OC[C@H]1[C@@H](NC(=O)/C(=N\OC(C)(C)C(=O)O)c2csc(N)n2)C(=O)N1S(=O)(=O)O (relative stereo) [Example No. 136C, cis-3-[2-(2-amino-4-thiazolyl)-2-(1-methyl-1-carboxyethyloxyimino)acetamido]-4-acetoxymethyl-2-oxoazetidine-1-sulfonic acid disodium salt (syn-isomer)]				1.56 µg/mL	
CC(C)(O/N=C(\C(=O)N[C@H]1C(=O)N(S(=O)(=O)O)[C@@H]1C(N)=O)c1csc(N)n1)C(=O)O (relative stereo) [Example No. 144C, trans-3-[2-(2-amino-4-thiazolyl)-2-(1-methyl-1-carboxyethyloxyimino)acetamido]-4-carbamoyl-2-oxoazetidine-1-sulfonic acid (syn-isomer)]			6.25 µg/mL (≈ 13.5 µM)	3.13 µg/mL (≈ 6.74 µM)	
COC(=O)C[C@@H]1[C@@H](NC(=O)/C(=N\OC(C)(C)C(=O)O)c2csc(N)n2)C(=O)N1S(=O)(=O)O (relative stereo) [Example No. 158C, trans-3-[2-(2-amino-4-thiazolyl)-2-(1-methyl-1-carboxyethyloxyimino)acetamido]-4-methoxycarbonylmethyl-2-oxo-azetidine-1-sulfonic acid (syn-isomer)]			3.13 µg/mL (≈ 6.34 µM)	6.25 µg/mL (≈ 12.7 µM)	
